According to ChEMBL document CHEMBL1201862, “PubChem BioAssay data set” (2004):
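Exposure lasted 48 hours, with cells grown in 96-well plates and compounds tested at five concentrations. GI50 marks 50% less growth.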 Active and inactive are the calls of the source. Rule as the data show it: active = GI50 up to about 1.1 µM and inactive = higher.

Columns and labels:
Experiment in all cases: NCI-60 cell line screen, 48 h
K562 = tested on: K562
HOP-62 = tested on: HOP-62
SF-295 = tested on: SF-295
Malme-3M = tested on: Malme-3M
UO-31 = tested on: UO-31
NCI-H460 = tested on: NCI-H460
HCT-15 = tested on: HCT-15
UACC-62 = tested on: UACC-62
COLO 205 = tested on: COLO 205
HL-60 = tested on: HL-60
NCI-H226 = tested on: NCI-H226
SW-620 = tested on: SW-620
786-0 = tested on: 786-0
Hs-578T = tested on: Hs-578T
SK-MEL-2 = tested on: SK-MEL-2
LOX IMVI = tested on: LOX IMVI
HOP-92 = tested on: HOP-92
DU-145 = tested on: DU-145
CAKI-1 = tested on: CAKI-1
SNB-75 = tested on: SNB-75

| Structure (SMILES) | GI50 (K562) | GI50 (HOP-62) | GI50 (SF-295) | GI50 (Malme-3M) | GI50 (UO-31) | GI50 (NCI-H460) | GI50 (HCT-15) [µM] | GI50 (UACC-62) | GI50 (COLO 205) | GI50 (HL-60) | GI50 (NCI-H226) | GI50 (SW-620) | GI50 (786-0) | GI50 (Hs-578T) | GI50 (SK-MEL-2) | GI50 (LOX IMVI) | GI50 (HOP-92) | GI50 (DU-145) | GI50 (CAKI-1) | GI50 (SNB-75) |
| --- | --- | --- | --- | --- | --- | --- | --- | --- | --- | --- | --- | --- | --- | --- | --- | --- | --- | --- | --- | --- |
| Cc1cc(CCC(=O)NCCNc2c3ccccc3nc3ccccc23)cc(C)c1O[Si](C)(C)C(C)(C)C | 0.276 µM (active) | 1.51 µM (inactive) | 0.807 µM (active) | 2.06 µM (inactive) | 1.83 µM (inactive) | 0.762 µM (active) | 0.282 | 14.5 µM (inactive) | 1.03 µM (active) | 1.52 µM (inactive) | 17.1 µM (inactive) | 0.215 µM (active) | 0.39 µM (active) | 2.01 µM (inactive) | 1.91 µM (inactive) | 0.148 µM (active) | 1.53 µM (inactive) | 1.1 µM (active) |  |  |
| COc1cc2c(c3c1c(=O)c1ccccc1n3C)C=C([N+](=O)[O-])C(C)(C)O2 | 0.441 µM (active) | 30.9 µM (inactive) | 0.647 µM (active) |  | 0.421 µM (active) | < 0.0201 µM (active) | 0.355 | 0.769 µM (active) | 0.0253 µM (active) | 0.167 µM (active) | 0.546 µM (active) |  | 0.328 µM (active) | 25.6 µM (inactive) | 0.0991 µM (active) | 0.138 µM (active) | 0.431 µM (active) | < 0.0456 µM (active) | 0.223 µM (active) | 13.2 µM (inactive) |
| O=C1[C@@H]2Cc3c([nH]c4ccccc34)C(C3CCCCC3)N2C(=O)[C@@H]2CCCN12 (stereo partly drawn) | 37.2 µM (inactive) | 31.4 µM (inactive) | 21.1 µM (inactive) | 18.9 µM (inactive) | 32.3 µM (inactive) |  | 33.4 | 17.3 µM (inactive) | 21.5 µM (inactive) | 27.3 µM (inactive) | 43.1 µM (inactive) | 41.2 µM (inactive) | 27.8 µM (inactive) | 27.9 µM (inactive) | 20 µM (inactive) | 28.3 µM (inactive) | 29.6 µM (inactive) | 55.5 µM (inactive) | 31.7 µM (inactive) |  |
| COc1cccc(N2C(=O)CSC2c2cc(OC)c(OC)c(OC)c2)c1 (stereo not drawn) | 25.9 µM (inactive) |  | 21.8 µM (inactive) |  | 36.8 µM (inactive) | 27.8 µM (inactive) | 20 | 34.2 µM (inactive) | 23 µM (inactive) | 31.7 µM (inactive) | 26.7 µM (inactive) | 39.7 µM (inactive) | 28.9 µM (inactive) | 48.2 µM (inactive) | > 100 µM (inactive) | 32.8 µM (inactive) | > 100 µM (inactive) | 12 µM (inactive) | 30.8 µM (inactive) |  |
| CC(=S)NC1C(Oc2ccc3c(C)cc(=O)oc3c2)OC(CO)C(O)C1O (stereo not drawn) | > 100 µM (inactive) | > 100 µM (inactive) | > 100 µM (inactive) |  | > 100 µM (inactive) | > 100 µM (inactive) | > 100 | > 100 µM (inactive) |  | > 100 µM (inactive) | > 100 µM (inactive) | > 100 µM (inactive) | > 10 µM (inactive) | > 100 µM (inactive) | > 100 µM (inactive) | > 100 µM (inactive) | > 100 µM (inactive) | > 100 µM (inactive) | > 100 µM (inactive) | > 100 µM (inactive) |
| COc1cccc(/C=C2\CCCCCC2=O)c1 | 72.3 µM (inactive) | > 100 µM (inactive) | > 100 µM (inactive) | > 100 µM (inactive) | 81.5 µM (inactive) | 52 µM (inactive) | > 100 | > 100 µM (inactive) | > 100 µM (inactive) |  | > 100 µM (inactive) | > 100 µM (inactive) | > 100 µM (inactive) | > 100 µM (inactive) | > 100 µM (inactive) | > 100 µM (inactive) | > 100 µM (inactive) | > 100 µM (inactive) | > 100 µM (inactive) | 62.5 µM (inactive) |
